Tests used:
Botrytis cinerea = experiment: Test B: gray mold, preventive spray on tomato seedlings; conditions: 100 = 100% disease control; for Test B rating (% disease control): 10 ppm, gray mold on tomato, 0 = no control; for Test B disease control rating: 10 ppm test solution, 0 = no control relative to controls
[1] = system: Puccinia recondita f sp. tritici; experiment: Test F: wheat leaf rust, preventive spray on wheat seedlings; conditions: 100 = 100% disease control; for Test F rating (% disease control): 10 ppm, wheat leaf rust, 0 = no control; for Test F disease control rating: 10 ppm test solution, 0 = no control relative to controls
Zymoseptoria tritici = experiment: Test E: wheat leaf blotch, preventive spray on wheat seedlings; conditions: 100 = 100% disease control; for Test E rating (% disease control): 10 ppm, wheat leaf blotch, 0 = no control; for Test E disease control rating: 10 ppm test solution, 0 = no control relative to controls
Stagonospora nodorum = experiment: Test D: wheat glume blotch, preventive spray on wheat seedlings; conditions: 100 = 100% disease control; for Test D rating (% disease control): 10 ppm, wheat glume blotch, 0 = no control; for Test D disease control rating: 10 ppm test solution, 0 = no control relative to controls
[2] = system: Erysiphe graminis f sp. tritici; experiment: Test G: wheat powdery mildew, preventive spray on wheat seedlings; conditions: 100 = 100% disease control; for Test G rating (% disease control): 10 ppm, wheat powdery mildew, 0 = no control; for Test G disease control rating: 10 ppm test solution, 0 = no control relative to controls

SMILES | Test B rating (% disease control) (Botrytis cinerea) [%] | Test F rating (% disease control) [1] [%] | Test E rating (% disease control) (Zymoseptoria tritici) [%] | Test D rating (% disease control) (Stagonospora nodorum) [%] | Test G rating (% disease control) [2] [%] | Test B disease control rating (Botrytis cinerea) [%] | Test F disease control rating [1] [%] | Test E disease control rating (Zymoseptoria tritici) [%] | Test D disease control rating (Stagonospora nodorum) [%] | Test G disease control rating [2] [%]
CC(C)(C)CC1CC(C(O)(Cn2cncn2)c2ccc(Cl)cc2)=NO1 (single isomer, unassigned) [Compound 76] | 0 | 0 | 0 | 0 | 89 | – | – | – | – | –
OC(Cn1cncn1)(C1=NOC(Cc2ccc(C(F)(F)F)cc2)C1)c1ccc(Cl)cc1 (single isomer, unassigned) [Compound 203] | 0 | 100 | 16 | 55 | 99 | – | – | – | – | –
OC(Cn1cncn1)(C1=NOC(COc2ccc(F)cc2)C1)c1ccc(Cl)cc1 (single isomer, unassigned) [Compound 162] | 0 | 100 | 76 | 96 | 100 | – | – | – | – | –
OC(Cn1cncn1)(C1=NOC(Cc2ccc(Cl)cc2)C1)c1ccc(Cl)cc1 (single isomer, unassigned) [Compound 201] | 0 | 100 | 1 | 50 | 96 | – | – | – | – | –
CC(C)(C)C(O)(Cn1cncn1)C1=NOC(COc2ccc(I)cc2)C1 (single isomer, unassigned) [Compound 185] | 0 | 100 | 0 | 100 | 99 | – | – | – | – | –
CCCCC(O)(Cn1cncn1)C1=NOC(c2ccc(Cl)cc2)C1 (single isomer, unassigned) [Compound 155] | 0 | 100 | 2 | 100 | 100 | – | – | – | – | –
CC(C)(C)C(O)(Cn1cncn1)C1=NOC(COc2ccc(Cl)nc2)C1 (single isomer, unassigned) [Compound 97] | 0 | 98 | 0 | 99 | 94 | – | – | – | – | –
OC(Cn1cncn1)(C1=NOC(CSc2ccccc2)C1)c1ccc(Cl)cc1 (single isomer, unassigned) [Compound 50] | 19 | 99 | 3 | 87 | 94 | – | – | – | – | –
OC(Cn1cncn1)(C1=NOC(c2ccc(Oc3ccccc3)cc2)C1)c1ccc(Cl)cc1 (single isomer, unassigned) [Compound 143] | 0 | 67 | 1 | 0 | 76 | – | – | – | – | –
OC(Cn1cncn1)(C1=NOC(COC2CCCCC2)C1)c1ccc(Cl)cc1 (single isomer, unassigned) [Compound 89] | 0 | 0 | 0 | 0 | 76 | – | – | – | – | –
OC(Cn1cncn1)(C1=NOC(COc2ncc(Cl)cn2)C1)c1ccc(Cl)cc1 (single isomer, unassigned) [Compound 167] | 0 | 98 | 0 | 0 | – | – | – | – | – | –
CC1(COc2ccc(Cl)cc2)CC(C(O)(Cn2cncn2)c2ccc(Cl)cc2)=NO1 (single isomer, unassigned) [Compound 219] | – | – | – | – | – | 0 | 95 | 0 | 0 | –
CC1(COc2ccc(Cl)cc2)CC(C(O)(Cn2cncn2)C(C)(C)C)=NO1 (single isomer, unassigned) [Compound 216] | – | – | – | – | – | 0 | 100 | 0 | 86 | –
OC(Cn1cncn1)(C1=NOC(COc2ccccc2)C1)c1ccc(Cl)cc1 (single isomer, unassigned) [Compound 145] | 0 | – | 28 | – | 88 | – | – | – | – | –
OC(Cn1cncn1)(C1=NOC(COc2ncc(Cl)cn2)C1)c1ccc(Cl)cc1 (single isomer, unassigned) [Compound 166] | 0 | 41 | 0 | 0 | – | – | – | – | – | –
CC1(COc2ccc(Cl)cc2)CC(C(O)(Cn2cncn2)C(C)(C)C)=NO1 (single isomer, unassigned) [Compound 217] | – | – | – | – | – | 0 | 100 | 0 | 92 | –

SMILES | Test B rating (% disease control) (Botrytis cinerea) [%] | Test F rating (% disease control) [1] [%] | Test E rating (% disease control) (Zymoseptoria tritici) [%] | Test D rating (% disease control) (Stagonospora nodorum) [%] | Test G rating (% disease control) [2] [%] | Test B disease control rating (Botrytis cinerea) [%] | Test F disease control rating [1] [%] | Test E disease control rating (Zymoseptoria tritici) [%] | Test D disease control rating (Stagonospora nodorum) [%] | Test G disease control rating [2] [%]
OC(Cn1cncn1)(Cn1cncn1)C1=NOC(COc2ccc(Cl)cc2)C1 (stereo not shown) [Compound 248] | – | – | – | – | – | – | 100 | 0 | 0 | 98
CC1(C(O)(Cn2cncn2)C2=NOC(COc3ccc(Br)cc3)C2)CC1 (single isomer, unassigned) [Compound 238] | – | – | – | – | – | – | 100 | 0 | 99 | 99
CC(C)(C)C(O)(Cn1cncn1)C1=NOC(COc2ccc(Cl)cc2Cl)C1 (single isomer, unassigned) [Compound 256] | – | – | – | – | – | – | 100 | 0 | 97 | 99
CC1(C(O)(Cn2cncn2)C2=NOC(COc3ccc(C(F)(F)F)cc3)C2)CC1 (single isomer, unassigned) [Compound 236] | – | – | – | – | – | – | 100 | 16 | 99 | 100
CC1(COc2ccc(Cl)cc2)CC(C(O)(Cn2cncn2)c2ccc(Cl)cc2)=NO1 (single isomer, unassigned) [Compound 218] | – | – | – | – | – | 0 | 100 | 0 | 21 | –
OC(COc1ccc(Cl)cc1)(Cn1cncn1)C1=NOC(COc2ccc(Cl)cc2)C1 (stereo not shown) [Compound 271] | – | – | – | – | – | – | 100 | 2 | 42 | 92
CC(C)(C)C(O)(Cn1cncn1)C1=NOC(COc2ccc(Cl)c(Cl)c2)C1 (single isomer, unassigned) [Compound 258] | – | – | – | – | – | – | 100 | 0 | 100 | 100
CC#CC(O)(Cn1cncn1)C1=NOC(c2ccc(Cl)cc2)C1 (stereo not drawn) [Compound 103, α-[5-(4-chlorophenyl)-4,5-dihydro-3-isoxazolyl]-α-1-propyn-1-yl-1H-1,2,4-triazole-1-ethanol] | 0 | 94 | 0 | – | 92 | – | – | – | – | –
CC(C)(C)C(O)(Cn1cncn1)C1=NOC(CCOc2ccc(Cl)cc2)C1 (single isomer, unassigned) [Compound 208] | – | 100 | 74 | 100 | 100 | – | – | – | – | –
OC(Cn1cncn1)(C1=NOC(Cc2ccc(-c3ccccc3)cc2)C1)c1ccc(Cl)cc1 (single isomer, unassigned) [Compound 205] | – | 68 | 6 | 10 | 98 | – | – | – | – | –
CCC(C)(C)C(O)(Cn1cncn1)C1=NOC(COc2ccc(C(F)(F)F)cc2)C1 (single isomer, unassigned) [Compound 262] | – | – | – | – | – | – | 99 | 41 | 0 | 98
CC(C)(C)C(O)(Cn1cncn1)C1=NOC(COc2ccc(-c3ccccc3)cc2)C1 (single isomer, unassigned) [Compound 229] | – | – | – | – | – | – | 0 | 6 | 0 | 98
CC(C)(C)C(O)(Cn1cncn1)C1=NOC(COCc2ccc(Cl)cc2)C1 (single isomer, unassigned) [Compound 264] | – | – | – | – | – | – | 0 | 0 | 0 | 99
CC(C)(C)C(O)(Cn1cncn1)C1=NOC(COc2ccc(Cl)cc2)C1 (single isomer, unassigned) [Compound 242] | – | – | – | – | – | – | 99 | 0 | 0 | 68
CC(C)(C)C(O)(Cn1cncn1)C1=NOC(COc2ccc(Cl)c(Cl)c2)C1 (single isomer, unassigned) [Compound 257] | – | – | – | – | – | – | 100 | 29 | 100 | 100

Source: US20160242416A1, “FUNGICIDAL ISOXAZOLINE CARBINOLS” (E I DU PONT DE NEMOURS AND COMPANY, priority 2015, published 2016)
